Laboratory results as given in PubChem BioAssay (NCI).
Where “and” joins values, the source holds several entries; their conditions need not be identical. Equal values may be shown once.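 Test compounds were applied to cells in 96-well plates for 48 hours at 5 doses. GI50 = concentration required for 50% inhibition of growth. The concentration for full growth arrest is given as TGI.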

Experiments:
Assay in all cases: NCI-60 cell line screen, 48 h
OVCAR-8 ovarian = test system: OVCAR-8 ovarian
MDA-MB-435 = test system: MDA-MB-435
A549 NSCLC = test system: A549 NSCLC
RXF 393 renal = test system: RXF 393 renal
HCT-15 colon = test system: HCT-15 colon
M14 melanoma = test system: M14 melanoma
MALME-3M melanoma = test system: MALME-3M melanoma
TK-10 renal = test system: TK-10 renal
LOX IMVI melanoma = test system: LOX IMVI melanoma
HT29 colon = test system: HT29 colon

Compound: O=C1N=C2c3c(sc4c3CCCC4)N=CN2C1N=Nc1ccc(Cl)cc1 (centres undefined)
- GI50 (OVCAR-8 ovarian): 31.3 µM
- TGI (OVCAR-8 ovarian): > 100 µM
- GI50 (MDA-MB-435): 19.8 µM
- TGI (MDA-MB-435): 58.1 µM
- GI50 (A549 NSCLC): 42.2 µM
- TGI (A549 NSCLC): > 100 µM
- GI50 (RXF 393 renal): 36.6 µM
- TGI (RXF 393 renal): > 100 µM
- GI50 (HCT-15 colon): 37.2 µM
- TGI (HCT-15 colon): > 100 µM
- GI50 (M14 melanoma): 24.7 µM
- TGI (M14 melanoma): > 100 µM
- GI50 (MALME-3M melanoma): 23.9 µM
- TGI (MALME-3M melanoma): 87.2 µM
- GI50 (TK-10 renal): 37.5 µM
- TGI (TK-10 renal): > 100 µM
- GI50 (LOX IMVI melanoma): 29.8 µM
- TGI (LOX IMVI melanoma): > 100 µM
- GI50 (HT29 colon): 11.7 µM
- TGI (HT29 colon): 39.8 µM

Compound: C[C@]12CC[C@H]3[C@@H](CCC4=CC(=O)CC[C@@H]43)[C@@H]1CC[C@@H]2OC1(O)C(=O)c2ccccc2C1=O
- TGI (OVCAR-8 ovarian): > 100 µM
- TGI (MDA-MB-435): > 100 µM
- TGI (A549 NSCLC): > 100 µM
- TGI (RXF 393 renal): > 100 µM
- TGI (HCT-15 colon): > 100 µM
- TGI (M14 melanoma): > 100 µM
- TGI (MALME-3M melanoma): > 100 µM
- TGI (TK-10 renal): > 100 µM
- TGI (LOX IMVI melanoma): > 100 µM
- TGI (HT29 colon): > 100 µM

Compound: CC(C)(C)Cn1c(N)nc2ccc(-c3[nH]c(C(C)(C)C)nc3-c3ccc(F)cc3)nc21
- GI50 (OVCAR-8 ovarian): 10.8 µM
- TGI (OVCAR-8 ovarian): 25.8 µM
- GI50 (MDA-MB-435): 11.2 µM
- TGI (MDA-MB-435): 24.1 µM
- GI50 (A549 NSCLC): 8.38 µM
- TGI (A549 NSCLC): 28.7 µM
- GI50 (RXF 393 renal): 4.04 µM
- TGI (RXF 393 renal): 14.6 µM
- GI50 (HCT-15 colon): 4.9 µM
- TGI (HCT-15 colon): 30.4 µM
- GI50 (M14 melanoma): 11.4 µM
- TGI (M14 melanoma): 24.7 µM
- GI50 (MALME-3M melanoma): 4.08 µM
- TGI (MALME-3M melanoma): 18.1 µM
- GI50 (TK-10 renal): 4.56 µM
- TGI (TK-10 renal): 18.9 µM
- GI50 (LOX IMVI melanoma): 12.8 µM
- TGI (LOX IMVI melanoma): 27.5 µM
- GI50 (HT29 colon): 4.52 µM
- TGI (HT29 colon): 19.3 µM

Compound: CC1(C)CCSC(/C=C/c2ccccc2)=N1
- TGI (OVCAR-8 ovarian): 29.8 µM
- TGI (MDA-MB-435): 32.6 µM
- TGI (A549 NSCLC): > 100 µM
- TGI (RXF 393 renal): 47.7 µM
- TGI (HCT-15 colon): 21.7 µM
- TGI (M14 melanoma): 27 µM
- TGI (MALME-3M melanoma): 25.6 µM
- TGI (TK-10 renal): 32.6 µM
- TGI (LOX IMVI melanoma): 27.8 µM
- TGI (HT29 colon): 33.1 µM

Compound: COc1cc(N2CCC(N(C)C)CC2)ccc1Nc1ncc(Cl)c(Nc2ccccc2P(C)(C)=O)n1
- GI50 (OVCAR-8 ovarian): 2.77 µM and 0.926 µM
- TGI (OVCAR-8 ovarian): 23.4 µM and > 10 µM
- GI50 (MDA-MB-435): 1.94 µM and 0.972 µM
- TGI (MDA-MB-435): > 87.6 µM
- GI50 (A549 NSCLC): 0.617 µM and 0.218 µM
- TGI (A549 NSCLC): 8.54 µM and > 7.6 µM
- GI50 (RXF 393 renal): 0.442 µM and 0.202 µM
- TGI (RXF 393 renal): 1.88 µM and 0.874 µM
- GI50 (HCT-15 colon): 2.8 µM and 1.48 µM
- TGI (HCT-15 colon): 16.9 µM and > 9.67 µM
- GI50 (M14 melanoma): 2.23 µM and 0.503 µM
- TGI (M14 melanoma): 15.3 µM and > 4.88 µM
- TGI (MALME-3M melanoma): 31.7 µM and > 7.77 µM
- GI50 (TK-10 renal): 0.491 µM and 0.196 µM
- TGI (TK-10 renal): 3.02 µM and 2.62 µM
- GI50 (LOX IMVI melanoma): 0.394 µM and 0.175 µM
- TGI (LOX IMVI melanoma): 1.82 µM and 0.68 µM
- GI50 (HT29 colon): 0.261 µM and 0.0794 µM
- TGI (HT29 colon): 2.99 µM and 0.785 µM

Compound: Cc1ccc(NC(=O)c2ccnc(C(F)(F)F)c2)cc1-c1cc(OCCO)nc(N2CCOCC2)c1
- GI50 (OVCAR-8 ovarian): 4.08 µM
- TGI (OVCAR-8 ovarian): > 100 µM
- GI50 (MDA-MB-435): 0.391 µM
- TGI (MDA-MB-435): 1.81 µM
- GI50 (A549 NSCLC): 3.21 µM
- TGI (A549 NSCLC): 28.9 µM
- GI50 (RXF 393 renal): 1.94 µM
- TGI (RXF 393 renal): 10.4 µM
- GI50 (HCT-15 colon): 2.24 µM
- TGI (HCT-15 colon): 19.4 µM
- GI50 (M14 melanoma): 0.63 µM
- TGI (M14 melanoma): 5.25 µM
- GI50 (MALME-3M melanoma): 0.108 µM
- TGI (MALME-3M melanoma): 0.66 µM
- GI50 (TK-10 renal): 6.66 µM
- TGI (TK-10 renal): > 100 µM
- GI50 (LOX IMVI melanoma): 0.147 µM
- TGI (LOX IMVI melanoma): 4.26 µM
- GI50 (HT29 colon): 0.413 µM
- TGI (HT29 colon): 14.8 µM
